{"source": "patent US9023767B2", "about": "“γ-Secretase substrates and methods of use” (Memorial Sloan-Kettering Cancer Center, priority 2009, dated 2015)", "key": {"γ-secretase [1]": {"biological_target": "T1, γ-secretase (Homo sapiens (Human), UniProt P49768)", "test": "Notch1 processing in ΔE-Notch1 transfected HEK293 cells, NICD Western blot", "assay_type": "cell-based", "conditions": "2 μM, 48 hrs", "procedure": "FIG. 5. […] The conditioned media were collected and secreted Aβ40 was measured with 6E10/G2-10 antibodies (mean±SEM; n=3). The activities of the peptide treatments were normalized to the DMSO treatment. […] The same experiments were performed as FIG. 5c. The cell lysates were analyzed by CT-15 antibody. Upper panel: full length APP. Lower panel: CTFs. […] The ΔE-Notch1 (a Notch construct with deletion of the extracellular portion and tagged by Myc) was transfected into HEK293 cells."}, "γ-secretase [2]": {"biological_target": "T2, γ-secretase (Homo sapiens (Human), UniProt P49768+Q92542)", "test": "Photoaffinity labeling of γ-secretase in HeLa membrane by Aβ17-23BPA20-biotin", "assay_type": "binding", "conditions": "inhibitor at 2 μM", "procedure": "FIG. 4. […] Various concentrations of inhibitor were incubated with APP substrate (S4) or Notch peptide substrate containing the C-terminal biotinylated transmembrane domain of Notch1 and HeLa cell membrane in the presence of 0.25% CHAPSO. Aβ40 was detected by G2-10 antibody. The cleaved Notch product was detected by Val1744 antibody that specifically recognizes the cleaved product between Gly1743 and Val1744. Activities are expressed as percentage relative to reading that was produced in DMSO control. […] Various concentrations of S4 substrate were incubated with HeLa membrane in fixed concentrations of inhibitor as indicated. The double reciprocal velocity (1/v) and substrate concentrations (1/S) are plotted to determine the type of inhibition. […] Assays were conducted as described in FIG. 4A. […] The labeled samples were solubilized with RIPA buffer. Biotinylated proteins were captured with streptavidin-agarose and probed by immunoblotting using antibodies against biotin, PS1-CTF, PS1-NTF, Nicastrin, PEN-2 and APH-1a. HeLa cell membrane proteins were directly loaded onto lanes indicated by an arrow in the PEN-2 and APH-1a blots as positive controls. […] Upper panel: PS1-NTF; Lower panel: PS1-CTF.\nThe labeled proteins were eluted with 2×SDS sample buffer and analyzed with Western blotting using antibodies against the components of γ-secretase complex. Protein concentration was determined with the Dc protein assay kit (Bio-Rad)\nAfter the photolyzed membranes were solubilized, biotinylated proteins were captured, eluted and analyzed by western blotting with antibodies against biotin, PS1, nicastrin, PEN-2 and APH-1."}, "γ-secretase [3]": {"biological_target": "T2, γ-secretase", "test": "In vitro γ-secretase assay, HeLa membrane, APP-derived substrates, ECL detection", "assay_type": "biochemical", "conditions": "S4 substrate", "procedure": "The recombinant proteins were incubated with γ-secretase (40 μg/ml) in the presence or absence of 1 μM γ-secretase inhibitor L-685,458 (CAS [292632-98-5], shown below). The reaction mixture contains 0.25% 3[(3-cholamidopropyl) dimethylammonio]-2-hydroxypropanesulfonic acid (CHAPSO), 0.1 μg/μl BSA, protease inhibitor, 50 mM PIPES, pH 7.0, 5 mM MgCl2, 5 mM CaCl2 and 150 mM KCl. The reaction was incubated for 2.5 hr at 37° C. and stopped by adding RIPA buffer (150 mM NaCl, 1.0% NP-40, 0.5% sodium\n[drawing 1] deoxycholate, 0.1% SDS, 50 mM Tris HCl, pH 8.0). The products were detected with various antibody combinations as previously described (Lai et al., 2003; J. Biol. Chem., 278: 22475-22481; Li et al., 2000, Proc. Natl. Acad. Sci. USA, 97: 6138-6143; Yin et al., 2007, J. Biol. Chem., 282:23639-23644) using electrochemiluminescence (ECL). The amount of product was determined using synthetic peptide or recombinant standards. The Km and Vmax were determined from the Michaelis-Menten equation Michaelis-Menten Kinetics (ν=Vm[S]/([…]; ν: initial rate; Vm: maximum velocity; Km: the Michaelis-Menten constant, S: substrate). P-values were calculated from Student t-test. 7.1.5 Cell-Based Aβ Production Assay and Western Blot"}, "A20 mouse lymphoma cells": {"system": "A20 mouse lymphoma cells", "test": "Lymphoma cell proliferation assay, [3H]thymidine incorporation", "assay_type": "cell-based", "conditions": "48 hours", "procedure": "For a lymphoma cell proliferation assay, A20 mouse lymphoma cells were seeded in a 96-well plate at a concentration of 5×10^5 cells/ml in 100 μl RPMI media containing 2% fetal bovine serum. An additional 100 μl of media containing DMSO or γ-secretase inhibitor was added and incubated for 48 hours at 37° C. After this incubation, the cells were incubated for 5 hours with 2 μCi/ml [^3H]thymidine at 37° C. Proliferative response was then evaluated by harvesting the tritiated DNA from cells using a Skatron cell harvester and proliferation assessed as a function of [^3H]thymidine incorporation measured on a β-counter."}, "γ-secretase [4]": {"biological_target": "T1, γ-secretase", "test": "HTRF γ-secretase assay with Sb4 substrate", "assay_type": "biochemical", "conditions": "384-well, 2% DMSO; read-out: IC50, HTRF assay", "from_the_text": "We set out to transfer the assay conditions obtained with the ECL method to an HTRF detection based format (FIG. 10b). The HTRF detection mixture consisted of mouse G2-10 antibody for recognition of the C-terminal epitope of the cleaved product, a Europium-labeled anti-mouse antibody (commonly, an antibody is conjugated with a cryptate ligand that forms a three dimensional coordination cage structure surrounding a lanthanide such as Eu^3+), along with Streptavidin conjugated to a trimeric form of the fluorescent protein allophycocyanin referred to as XL665. Cleavage of Sb4 substrate allows G2-10 mouse antibody to bind to the Aβ40-processed site on the cleaved substrate. The Steptavidin-XL665 conjugate binds directly with the biotin moiety on the N-terminal end of the Sb4 derived product. The anti-mouse Europium antibody targets to the G2-10 antibody, bringing all of these entities into close proximity. The Europium and XL665 reagents are a compatible pair of donor-acceptor fluorophores, and excitation of Europium at 337 nm results in fluorescence energy resonance transfer (FRET) to XL665 which fluoresces at 665 nm (FIG. 10b).\nHuman γ-secretase was prepared from HeLa cell membranes as described previously (Li et al., 2000). Briefly, HeLa cell pellet was resuspended in 1×MES buffer (50 mM MES, pH 6.0, 150 mM KCl, 5 mM CaCl2, 5 mM MgCl2) and treated with ‘complete’ protease inhibitor (Boehringer Mannheim). The resuspended pellet was mechanically homogenized by passing the cells through the French Press (Spectronic Instruments), and subsequently spun down at 800 g to remove cell debris and nuclei. Next, the supernatants were spun at 100,000 g in order to pellet the membranes. The pelleted membranes were resuspended in 1×MES buffer to approximately 12 mg/ml. This entire procedure was performed at 4° C. HeLa membranes were solubilized using 1% CHAPSO detergent in 1×MES buffer with protease inhibitors. After incubating for 1 hr at 4° C., the membrane was spun down at 100,000 g and the supernatants were collected and stored at −70° C. The collected fraction is defined as solubilized γ-secretase.\nHTRF conditions were initially optimized in a 384-well format using a final volume of 20 μl. The high control for this assay was defined as the observed γ-secretase activity in the presence of 1% DMSO (v/v) and the low control as the activity observed when including 100 nM final concentration of Compound E (v/v). First, we determined a tolerable DMSO concentration that would not interfere with γ-secretase activity. Even with 3% DMSO (v/v) present in the assay mixture, there was virtually no effect on the γ-secretase activity (FIG. 11a), which was critical as delivery of library screening compounds required a final concentration of 2% DMSO (v/v) in the γ-secretase reaction. Next, we titrated the HTRF mixture components in an effort to minimize reagent costs for use in high throughput screening. […] Additionally, we varied Europium conjugated anti-mouse antibody and determined that 1 nM of this reagent in the HTRF mixture was sufficient for our assay conditions even though the signal continued to increase with higher concentrations of the anti-mouse antibody (FIG. 11c).\nWe have further miniaturized the HTRF assay from the established 384-well format to a 1536-well platform enabling more efficient screening of large chemical libraries. […] Based on these optimization experiments, we set our final assay conditions at 0.3 nM G2-10, 1 nM anti-mouse antibody, 15 nM Streptavidin-XL665, and proceeded with the assay at 10 μl final volume (5 μl γ-secretase mix+5 μl HTRF mix) in the 1536-well format for screening.\nThe pilot assay was performed in duplicate on two separate days to account for any day-to-day variability. […]"}}, "data": [{"smiles": "CC(C)C[C@H](NC(=O)[C@H](Cc1ccccc1)C[C@@H](O)[C@H](Cc1ccccc1)NC(=O)OC(C)(C)C)C(=O)N[C@@H](Cc1ccccc1)C(N)=O", "note": "[L-685,458]", "values": [{"measurement": "production of NICD", "setting": "γ-secretase [1]", "result": "NICD was not detected"}, {"measurement": "block of photo-crosslinking of PS1-CTF and PS1-NTF by Aβ17-23BPA20-biotin", "setting": "γ-secretase [2]", "result": "completely blocked"}, {"measurement": "type of inhibition (Lineweaver-Burk)", "setting": "γ-secretase [3]", "result": "competitive inhibition"}, {"measurement": "inhibition of cellular proliferation", "setting": "A20 mouse lymphoma cells", "result": "able to inhibit cellular proliferation"}, {"measurement": "IC50", "setting": "γ-secretase [4]", "result": 1.4, "unit": "nM"}]}]}
